The source made the active and inactive calls. The calls are words filed in the database; no cut-off is given here.

One assay concerns Dopamine receptor. To be noted: Felis catus.
For assay [1], the species on record is Felis catus. Kind of assay: Compound was tested for inhibition of chronotropic stimulation response on the cardioaccelerator nerve in cat. To be noted: read-out: ID50 (the source's name). In kind it is functional.
The species named for assay [2] is Rattus norvegicus. Kind of assay: Compound was tested for induction of contralateral turning behavior with unilateral lesions of the nigrostriatal pathway in rat, activity expressed as potency ratio to apomorphine. In kind it is functional.
Assay [3] relates to Felis catus. Kind of assay: Compound was tested for inhibition of chronotropic stimulation response on the cardioaccelerator nerve in cat at the concentration > 3.0 uM/kg; Inactive. In kind it is functional, organism-based.
For assay [4], the system named is Rattus norvegicus. Put plainly: Compound was tested for induction of contralateral turning behavior with unilateral lesions of the nigrostriatal pathway in rat, activity expressed as potency ratio to apomorphine; Inactive up to 16.9 umol/kg. In kind it is functional, organism-based.
For assay [5], the species on record is Felis catus. Kind of assay: Compound was tested for antagonism of apomorphine induced inhibition of the tachycardia produced by stimulation of the right cardioaccelerator nerve in cat. In kind it is functional.
The test system of assay [6] is Rattus norvegicus. Put plainly: Compound was tested for induction of contralateral turning behavior with unilateral lesions of the nigrostriatal pathway in rat, activity expressed as potency ratio to apomorphine; Inactive up to 12.19 umol/kg. In kind it is functional, organism-based.
For assay [7], the species on record is Rattus norvegicus. Put plainly: Compound was tested for induction of contralateral turning behavior with unilateral lesions of the nigrostriatal pathway in rat by haloperidol; Significant at p< 0.05. In kind it is functional, organism-based.
Assay [8] concerns Rattus norvegicus. Put plainly: Compound was tested for induction of contralateral turning behavior with unilateral lesions of the nigrostriatal pathway in rat, activity expressed as potency ratio to apomorphine; Inactive in inducing turns up to 12.1 umol/kg. In kind it is functional, organism-based.
Assay [9] deals with Rattus norvegicus. Put plainly: Compound was tested for induction of contralateral turning behavior with unilateral lesions of the nigrostriatal pathway in rat, activity expressed as potency ratio to apomorphine; Inactive up to 13.3 umol/kg. In kind it is functional, organism-based.
Assay [10] has as its system Rattus norvegicus. Put plainly: Compound was tested for induction of contralateral turning behavior with unilateral lesions of the nigrostriatal pathway in rat, activity expressed as potency ratio to apomorphine; Inactive up to 12.3 umol/kg. In kind it is functional, organism-based.
The species entered for assay [11] is Rattus norvegicus. Kind of assay: Compound was tested for induction of contralateral turning behavior with unilateral lesions of the nigrostriatal pathway in rat by haloperidol; NS= Not significant. In kind it is functional, organism-based.
Assay [12] concerns Rattus norvegicus. Put plainly: Compound was tested for induction of contralateral turning behavior with unilateral lesions of the nigrostriatal pathway in rat, activity expressed as potency ratio to apomorphine; Inactive up to 11.7 umol/kg. In kind it is functional, organism-based.
The test system of assay [13] is Rattus norvegicus. Kind of assay: Compound was tested for induction of contralateral turning behavior with unilateral lesions of the nigrostriatal pathway in rat, activity expressed as potency ratio to apomorphine; Inactive up to 13.9 umol/kg. In kind it is functional, organism-based.

For `CCCN(CCC)C1CCc2c(ccc(CO)c2O)C1` (centres undefined), the AD50 result with Dopamine receptor was “inactive”. In addition, the ED50 in the assay listed under Felis catus [1] amounted to 0.03 µmol/kg. Also, in the assay filed under Rattus norvegicus [2], the Potency ratio was 0.93.
For `CCCN(CCC)CCc1ccc(C)c(O)c1`, the AD50 entry in the assay with Dopamine receptor was “inactive”. Moreover, the ID50 result with Felis catus [3] is “inactive”. Also, the Potency ratio entry in the assay with Rattus norvegicus [4] is “inactive”.
Consider `CCCN1CCC[C@H]2c3ccc(C)c(O)c3CC[C@@H]21`, for which, in the assay listed under Felis catus [5], the AD50 worked out at 0.44 µM/kg. In the assay with Felis catus [3], the ID50 entry was “inactive”. Further, the Potency ratio in the assay listed under Rattus norvegicus [2] is 0.68.
Turning to `CCCN(CCC)CCc1ccc(CO)c(O)c1`, the AD50 entry in the assay with Dopamine receptor was “inactive”. In the assay with Rattus norvegicus [6], the Potency ratio result was “inactive”. Moreover, the ID50 result with Felis catus [3] is “inactive”.
Take `CCCN(CCC)C1Cc2ccc(CO)c(O)c2C1` (centres undefined): in the assay with Dopamine receptor, the AD50 result was “inactive”. Also, the Antagonism result in the assay filed under Rattus norvegicus [7] is “Active”. Moreover, the ED50 in the assay filed under Felis catus [1] was determined as 0.12 µmol/kg. Moreover, the Potency ratio in the assay listed under Rattus norvegicus [2] came out at 0.33.
On to `CCCN(CCC)C1CCc2c(ccc(C=O)c2O)C1` (centres undefined), for which, in the assay with Dopamine receptor, the AD50 result is “inactive”. Moreover, in the assay filed under Felis catus [1], the ED50 came out at 0.13 µmol/kg. Moreover, the Potency ratio in the assay filed under Rattus norvegicus [2] is recorded as 0.07.
For the compound `CCCN(CCC)C1CCc2c(ccc(C(=O)O)c2O)C1` (centres undefined), the AD50 result in the assay with Dopamine receptor is “inactive”. Moreover, the ID50 entry with Felis catus [3] was “inactive”. Also, the Potency ratio entry with Rattus norvegicus [8] was “inactive”.
On to `CCCN(CCC)C1CCc2c(ccc(C)c2O)C1` (centres undefined), for which the AD50 result with Dopamine receptor was “inactive”. The ED50 in the assay listed under Felis catus [1] was 0.06 µmol/kg. In the assay filed under Rattus norvegicus [2], the Potency ratio came to 0.39.
In the case of `CCCN(CCC)CCc1ccc(C=O)c(O)c1`, in the assay with Dopamine receptor, the AD50 entry is “inactive”. For the same compound, in the assay on Felis catus [3], the ID50 result is “inactive”. In addition, the Antagonism entry in the assay listed under Rattus norvegicus [7] was “Active”. The Potency ratio entry in the assay with Rattus norvegicus [9] was “inactive”.
`CCCN1CCC[C@H]2c3ccc(CO)c(O)c3CC[C@@H]21`: the AD50 result in the assay with Dopamine receptor was “inactive”. Besides, the ID50 result in the assay on Felis catus [3] is “inactive”. For the same compound, the Antagonism result in the assay listed under Rattus norvegicus [7] was “Active”. Further, the Potency ratio in the assay listed under Rattus norvegicus [2] is recorded as 0.07.
As to `CCCN1CCC[C@H]2c3ccc(C(=O)O)c(O)c3CC[C@@H]21`, the AD50 entry with Dopamine receptor was “inactive”. Moreover, the ID50 result with Felis catus [3] is “inactive”. In the assay on Rattus norvegicus [10], the Potency ratio entry was “inactive”.
For the compound `CCCN(CCC)C1Cc2ccc(C)c(O)c2C1` (centres undefined), the AD50 result in the assay with Dopamine receptor is “inactive”. In addition, in the assay listed under Rattus norvegicus [7], the Antagonism entry is “Active”. Moreover, the ED50 in the assay listed under Felis catus [1] is 0.89 µmol/kg. Besides, the Potency ratio in the assay filed under Rattus norvegicus [2] is reported as 0.3.
For `CCCN1CCC[C@H]2c3ccc(C=O)c(O)c3CC[C@@H]21`, in the assay on Dopamine receptor, the AD50 result was “inactive”. Besides, the Antagonism entry in the assay listed under Rattus norvegicus [11] was “inactive”. For the same compound, the ED50 in the assay filed under Felis catus [1] is 1.81 µmol/kg. Further, the Potency ratio in the assay filed under Rattus norvegicus [2] was determined as 0.38.
For the compound `CCCN(CCC)C1Cc2ccc(C(=O)O)c(O)c2C1` (centres undefined), the AD50 result with Dopamine receptor is “inactive”. In addition, the ED50 in the assay filed under Felis catus [1] turned out to be 3.18 µmol/kg.
With `CN1CCc2cccc3c2[C@H]1Cc1ccc(O)c(O)c1-3` [APOMORPHINE], in the assay filed under Rattus norvegicus [7], the Antagonism result was “Active”. In the assay filed under Felis catus [1], the ED50 stood at 0.022 µmol/kg.
As to `CCCN(CCC)C1Cc2ccc(C=O)c(O)c2C1` (centres undefined), in the assay with Dopamine receptor, the AD50 entry was “inactive”. Moreover, the ID50 entry with Felis catus [3] was “inactive”. Besides, the Potency ratio entry with Rattus norvegicus [12] was “inactive”.
Consider `CCCN(CCC)CCc1ccc(C(=O)O)c(O)c1`, for which the AD50 entry in the assay with Dopamine receptor is “inactive”. In addition, in the assay with Felis catus [3], the ID50 entry was “inactive”. Besides, in the assay on Rattus norvegicus [13], the Potency ratio entry was “inactive”.

For the origin of these results see ChEMBL document CHEMBL1123495, “Assessment of a potential dopaminergic prodrug moiety in several ring systems” (1986).
